US11780826B2 (Amgen Inc., priority 2017, dated 2023)

tested on: Bovine cardiac myofibrils; assay: In vitro model of dose-dependent myofibril ATPase modulation (AC1.4, pyruvate kinase/lactate dehydrogenase-coupled ATPase assay at pCa25); assay type: biochemical; details: concentration at which ATPase activity was 1.4-fold higher than the bottom of the dose curve, mean of a minimum of two independent tests
Description: In vitro Model of Dose-Dependent Myofibril ATPase Modulation: Dose responses were measured using a calcium-buffered, pyruvate kinase and lactate dehydrogenase-coupled ATPase assay containing the following reagents (concentrations expressed are final assay concentrations): Potassium PIPES (12 mM), MgCl2 (2 mM), ATP (1 mM), DTT (1 mM), BSA (0.1 mg/mi), NADH (0.5 mM), PEP (1.5 mM), pyruvate kinase (4 U/ml), lactate dehydrogenase (8 U/ml), and antifoam (90 ppm). The pH was adjusted to 6.80 at 22° C. by addition of potassium hydroxide.
Bovine cardiac myofibrils were obtained by homogenizing the appropriate tissue in the presence of detergent. Such treatment removes membranes and majority of soluble cytoplasmic proteins but leaves intact cardiac sarcomeric acto-myosin apparatus. Concentrations of myofibrils were adjusted to achieve the necessary rate of ATP hydrolysis (typically 0.25-1.0 mg/ml).
Assays were performed by first preparing a dilution series of test chemical entity, each with an assay mixture containing potassium Pipes, MgCl2, BSA, DTT, pyruvate kinase, lactate dehydrogenase, myofibrils, antifoam, EGTA, CaCl2, and water. The assay was started by adding an equal volume of solution containing potassium Pipes, MgCl2, BSA, DTT, ATP, NADH, PEP, antifoam, and water. ATP hydrolysis was monitored by absorbance at 340 nm. The resulting dose response curve was fit by the 4 parameter equation y=Bottom+((Top−Bottom)/(1+((EC50/X)^Hill))). […] AC1.4 values reported in the table below are mean values based on a minimum of two independent tests.

Compound	AC1.4 [µM]
O=C(N[C@@H](c1cc(F)c(C(F)(F)F)cc1F)[C@H]1C[C@@H](O)C1)[C@H]1C[C@H]2C[C@H]2N1C(=O)c1ccnc(C(F)F)c1 (stereo in doubt) [Example 830, (1R,3R,5R)-N-((R)-(2,5-difluoro-4-(trifluoromethyl)phenyl)((1s,3S)-3-hydroxycyclobutyl)methyl)-2-(2-(difluoromethyl)isonicotinoyl)-2-azabicyclo[3.1.0]hexane-3-carboxamide]	0.6694
N#CC1CN(S(=O)(=O)N2CCC[C@H](C(=O)N3CCC[C@@H]3C(=O)N[C@@H](c3ccc(Cl)cc3F)C3CC3)C2)C1 [Example 2, N-((R)-(4-chloro-2-fluorophenyl)(cyclopropyl)methyl)-1-(((3S)-1-((3-cyano-1-azetidinyl)sulfonyl)-3-piperidinyl)carbonyl)-D-prolinamide]	0.01475
N#CC1CN(S(=O)(=O)c2cccc(C(=O)N3C[C@H]4C[C@H]4[C@@H]3C(=O)NCc3ccc(C(F)(F)F)cc3)c2)C1 [Example 5]	0.01655
C[C@@H](NC(=O)[C@H]1CC(F)(F)CN1C(=O)c1cccc(S(=O)(=O)N2CC(C#N)C2)c1)c1ccc(C(F)(F)F)cc1 [Example 6, 1-((3-((3-cyano-1-azetidinyl)sulfonyl)phenyl)carbonyl)-4,4-difluoro-N-((1R)-1-(4-(trifluoromethyl)phenyl)ethyl)-D-prolinamide]	0.0171
N#CC1CN(S(=O)(=O)N2CCC[C@H](C(=O)N3CCC[C@@H]3C(=O)N[C@@H](c3ccc(C(F)(F)F)cc3)C3CC3)C2)C1 [Example 11, 1-(((3S)-1-((3-cyano-1-azetidinyl)sulfonyl)-3-piperidinyl)carbonyl)-N-((R)-cyclopropyl(4-(trifluoromethyl)phenyl)methyl)-D-prolinamide]	0.0215
CC[C@@H](NC(=O)[C@H]1CCCN1C(=O)c1cccc(S(=O)(=O)N2CC(C#N)C2)c1)c1ccc(C(F)(F)F)cc1F [Example 12, 1-(3-((3-cyano-1-azetidinyl)sulfonyl)benzoyl)-N-((1R)-1-(2-fluoro-4-(trifluoromethyl)phenyl)propyl)-D-prolinamide]	0.0216
N#CC1CN(S(=O)(=O)N2CCC[C@H](C(=O)N3CCC[C@@H]3C(=O)N[C@H](CC3CC3)c3ccc(C(F)(F)F)cc3)C2)C1 [Example 14, 1-(((3S)-1-((3-cyano-1-azetidinyl)sulfonyl)-3-piperidinyl)carbonyl)-N-((1R)-2-cyclopropyl-1-(4-(trifluoromethyl)phenyl)ethyl)-D-prolinamide]	0.0227
N#CC1CN(S(=O)(=O)c2cccc(C(=O)N3CC4(CC4)C[C@@H]3C(=O)NCc3ccc(C(F)(F)F)cc3)c2)C1 [Example 15, (6R)-5-((3-((3-cyano-1-azetidinyl)sulfonyl)phenyl)carbonyl)-N-(4-(trifluoromethyl)benzyl)-5-azaspiro[2.4]heptane-6-carboxamide]	0.02315
C[C@@H](NC(=O)[C@H]1CCCN1C(=O)c1cc(F)cc(S(=O)(=O)N2CC(C#N)C2)c1)c1ccc(C(F)(F)F)cc1 [Example 16, 1-((3-((3-cyano-1-azetidinyl)sulfonyl)-5-fluorophenyl)carbonyl)-N-((1R)-1-(4-(trifluoromethyl)phenyl)ethyl)-D-prolinamide]	0.0238
N#CC1CN(S(=O)(=O)c2cccc(C(=O)N3CCC[C@@H]3C(=O)N[C@H](CO)c3ccc(Cl)c(F)c3)c2)C1 [Example 24, N-((1S)-1-(4-chloro-3-fluorophenyl)-2-hydroxyethyl)-1-(3-((3-cyano-1-azetidinyl)sulfonyl)benzoyl)-D-prolinamide]	0.02875

Other lines, results leading:

AC1.4 [µM]	Compound
7.331	1-(((3S)-1-(((6R)-6-hydroxy-2-azaspiro[3.4]oct-2-yl)sulfonyl)-3-piperidinyl)carbonyl)-N-(4-(trifluoromethyl)benzyl)-D-prolinamide,1-(((3S)-1-(((6S)-6-hydroxy-2-azaspiro[3.4]oct-2-yl)sulfonyl)-3-piperidinyl)carbonyl)-N-(4-(trifluoromethyl)benzyl)-D-prolinamide [Example 750]
2.157	N#CC1CN(S(=O)(=O)c2cccc(C(=O)N3c4ccccc4CC3C(=O)NCc3ccc(C(F)(F)F)cc3)c2)C1 (racemic) [Example 481, (2R)-1-((3-((3-cyano-1-azetidinyl)sulfonyl)phenyl)carbonyl)-N-(4-(trifluoromethyl)benzyl)-2,3-dihydro-1H-indole-2-carboxamide and (2S)-1-((3-((3-cyano-1-azetidinyl)sulfonyl)phenyl)carbonyl)-N-(4-(trifluoromethyl)benzyl)-2,3-dihydro-1H-indole-2-carboxamide]
2.928	N#CC1CN(S(=O)(=O)N2CCC[C@H](C(=O)N3CCC[C@@H]3C(=O)N[C@@H](c3cc(F)c(Cl)cc3F)C3CNC3)C2)C1 (single isomer, unassigned) [Example 558]
0.01405	N#CC1CN(S(=O)(=O)c2cccc(C(=O)N3CCC[C@@H]3C(=O)N[C@H](CC3CC3)c3ccc(C(F)(F)F)cc3)c2)C1 [Example 1, 1-(3-((3-cyano-1-azetidinyl)sulfonyl)benzoyl)-N-((1R)-2-cyclopropyl-1-(4-(trifluoromethyl)phenyl)ethyl)-D-prolinamide]
0.01635	CC[C@@H](NC(=O)[C@H]1CCCN1C(=O)c1cccc(S(=O)(=O)N2CC(C#N)C2)c1)c1ccc(C(F)(F)F)cc1 [Example 3, 1-(3-((3-cyano-1-azetidinyl)sulfonyl)benzoyl)-N-((1R)-1-(4-(trifluoromethyl)phenyl)propyl)-D-prolinamide]
0.01635	CC[C@@H](NC(=O)[C@H]1CCCN1C(=O)[C@H]1CCCN(S(=O)(=O)N2CC(C#N)C2)C1)c1ccc(C(F)(F)F)cc1F [Example 4, 1-(((3S)-1-((3-cyano-1-azetidinyl)sulfonyl)-3-piperidinyl)carbonyl)-N-((1R)-1-(2-fluoro-4-(trifluoromethyl)phenyl)propyl)-D-prolinamide]
0.01905	N#CC1CN(S(=O)(=O)c2cccc(C(=O)N3CCC[C@@H]3C(=O)N[C@H](CC(F)(F)F)c3ccc(C(F)(F)F)cc3)c2)C1 [Example 7, 1-(3-((3-cyano-1-azetidinyl)sulfonyl)benzoyl)-N-((1R)-3,3,3-trifluoro-1-(4-(trifluoromethyl)phenyl)propyl)-D-prolinamide]
0.0198	N#CC1CN(S(=O)(=O)c2cccc(C(=O)N3CC(F)(F)C[C@@H]3C(=O)NCc3ccc(C(F)(F)F)cc3)c2)C1 [Example 8, 1-((3-((3-cyano-1-azetidinyl)sulfonyl)phenyl)carbonyl)-4,4-difluoro-N-(4-(trifluoromethyl)benzyl)-D-prolinamide]
0.01995	CC(C)[C@@H](NC(=O)[C@H]1CCCN1C(=O)[C@H]1CCCN(S(=O)(=O)N2CC(C#N)C2)C1)c1ccc(C(F)(F)F)cc1F [Example 9, 1-(((3S)-1-((3-cyano-1-azetidinyl)sulfonyl)-3-piperidinyl)carbonyl)-N-((1R)-1-(2-fluoro-4-(trifluoromethyl)phenyl)-2-methylpropyl)-D-prolinamide]
0.02115	CC(C)[C@@H](NC(=O)[C@H]1CCCN1C(=O)c1cccc(S(=O)(=O)N2CC(C#N)C2)c1)c1ccc(C(F)(F)F)cc1F [Example 10, 1-(3-((3-cyano-1-azetidinyl)sulfonyl)benzoyl)-N-((1R)-1-(2-fluoro-4-(trifluoromethyl)phenyl)-2-methylpropyl)-D-prolinamide]
0.02445	CC[C@@H](NC(=O)[C@H]1CCCN1C(=O)[C@H]1CCCN(S(=O)(=O)N2CC(C#N)C2)C1)c1ccc(C(F)(F)F)cc1 [Example 17, 1-(((3S)-1-((3-cyano-1-azetidinyl)sulfonyl)-3-piperidinyl)carbonyl)-N-((1R)-1-(4-(trifluoromethyl)phenyl)propyl)-D-prolinamide]
0.02495	C[C@@H](NC(=O)[C@H]1COCCN1C(=O)c1cccc(S(=O)(=O)N2CC(C#N)C2)c1)c1ccc(C(F)(F)F)cc1 [Example 19, (R)-4-(3-((3-cyanoazetidin-1-yl)sulfonyl)benzoyl)-N—((R)-1-(4-(trifluoromethyl)phenyl)ethyl)morpholine-3-carboxamide]
0.02545	N#CC1CN(S(=O)(=O)N2CCC[C@H](C(=O)N3CCC[C@@H]3C(=O)NCc3cc(F)c(Cl)cc3F)C2)C1 [Example 20, N-(4-chloro-2,5-difluorobenzyl)-1-(((3S)-1-((3-cyano-1-azetidinyl)sulfonyl)-3-piperidinyl)carbonyl)-D-prolinamide]
0.02715	N#CC1CN(S(=O)(=O)c2cccc(C(=O)N3CCC[C@@H]3C(=O)NCc3ccc(Cl)c(Cl)c3)c2)C1 [Example 22, 1-((3-((3-cyano-1-azetidinyl)sulfonyl)phenyl)carbonyl)-N-(3,4-dichlorobenzyl)-D-prolinamide]
0.0287	CCNc1ccc(C)cc1C(=O)N1[C@@H](C(=O)N[C@@H](c2ccc(C(F)(F)F)cc2F)C2COC2)C[C@H]2C[C@H]21 [Example 23, (1R,3R,5R)-2-(2-(ethylamino)-5-methylbenzoyl)-N-((R)-(2-fluoro-4-(trifluoromethyl)phenyl)(3-oxetanyl)methyl)-2-azabicyclo[3.1.0]hexane-3-carboxamide]
